Source: patent publication US20230133114A1, “COMPOSITIONS AND METHODS CONTAINING REDUCED NICOTINAMIDE RIBOSIDE FOR PREVENTION AND TREATMENT OF VIRAL AND BACTERIAL INFECTIONS” (SOCIETE DES PRODUITS NESTLE S.A., priority 2020, published 2023)
Where a name gives a salt, the structure may show the parent alone.

Columns and labels:
[1] = Stability of NRH or NR spiked in isolated mouse plasma; type: in vitro ADME; settings: for levels of spiked compound in plasma: isolated mouse plasma, 2 h of incubation
Description: (§1) Levels of NRH and other NAD-related metabolites in biological samples were obtained by using a cold liquid-liquid extraction using a mixture of methanol:water:chloroform in 5:3:5 (v/v), from which the polar phase was recovered for hydrophilic interaction ultra-high performance liquid chromatography mass spectrometry (UHPLC-MS) analysis. The UHPLC consisted of a binary pump, a cooled autosampler, and a column oven (DIONEX Ultimate 3000 UHPLC+ Focused, Thermo Scientific), connected to a triple quadrupole spectrometer (TSQ Vantage, Thermo Scientific) equipped with a heated electrospray ionisation (H-ESI) source. Of each sample, 2 µL were injected into the analytical column (2.1 mm × 150 mm, 5 µm pore size, 200 Å HILICON iHILIC®-Fusion(P)), guarded by a pre-column (2.1 mm × 20 mm, 200 Å HILICON iHILIC®-Fusion(P) Guard Kit) operating at 35° C. The mobile phase (10 mM ammonium acetate at pH 9, A, and acetonitrile, B) was pumped at 0.25 mL/min flow rate over a linear gradient of decreasing organic solvent (0.5-16 min, 90-25% B), followed by re-equilibration for a total run time of 30 min. The MS operated in positive mode at 3500 V with multiple reaction monitoring (MRM). The software Xcalibur v4.1.31.9 (Thermo Scientific) was used for instrument control, data acquisition and processing. Retention time and mass detection was confirmed by authentic standards.
(§2) NR degradation to NAM has been proposed as a limitation for its pharmacological efficacy. To evaluate whether NRH was also susceptible to degradation to NAM, we spiked NRH or NR in isolated mouse plasma. […] We also tested the stability of NRH in other matrixes. […] Finally, we also certified NRH stability in water (pH=7, at room temperature) for 48 h.

[2] = test system: NAD+ levels; assay: Tissue NAD+ levels after IP injection in mice; type: in vivo; settings: IP 500 mg/kg, after 1 h
Description: as §1
The above results prompted us to test whether NRH could act as an effective NAD+ precursor in vivo. For this, we first intraperitoneally (IP) injected mice with either NR or NRH (500 mg/kg). […] Importantly, NRH was detectable in circulation after IP injection.

[3] = Circulating NRH, NR and NAM after IP injection in mice; type: in vivo
Description: as §1, with “standards. […]” for “standards.”

[4] = Stability in FBS supplemented media; type: in vitro ADME
Experimental: as §2

[5] = Plasma NRH, NR and NAM after oral administration in mice; type: in vivo
Description: as §1
Oral administration of NRH led to very similar results to those observed after IP administration. […] NRH was detectable in plasma 1 h after oral administration. In contrast, NR levels were undetectable at 1 h after NR administration.

[6] = test system: Splenocytes; assay: Intracellular NAD+ in splenocytes; type: cell-based; settings: splenocytes from 1 year old mice, 2 hours
Experimental: Then, 2 hours later, intracellular NAD+ levels were measured. * indicates p<0.05 vs. Control (0 mM) group. […] Then, 2 hours later, intracellular NAD+ levels were measured as described above.

[7] = Stability in water; type: physicochemical; settings: pH=7, room temperature, 48 h
Experimental: as §2

[8] = test system: NAD+ levels; assay: Hepatic NAD+ levels after oral administration in mice; type: in vivo; settings: oral administration (FIG. 2: 500 mg/kg, 1 hour)
Experimental: 8 week-old C57BI/6NTac mice were orally gavaged with either saline (as vehicle), NR (500 mg/kg) or NRH (500 mg/kg). After 1 hour, liver, skeletal muscle and kidney NAD^+ levels were evaluated. All results are expressed as mean +/-SEM of n=5 mice per group. * indicates statistical difference at p<0.05 vs. vs. saline-treated mice. # indicates statistical difference at p<0.05 vs. NR treated mice.
(§3) Levels of NRH and other NAD-related metabolites in biological samples were obtained by using a cold liquid-liquid extraction using a mixture of methanol:water:chloroform in 5:3:5 (v/v), from which the polar phase was recovered for hydrophilic interaction ultra-high performance liquid chromatography mass spectrometry (UHPLC-MS) analysis. The UHPLC consisted of a binary pump, a cooled autosampler, and a column oven (DIONEX Ultimate 3000 UHPLC+ Focused, Thermo Scientific), connected to a triple quadrupole spectrometer (TSQ Vantage, Thermo Scientific) equipped with a heated electrospray ionisation (H-ESI) source. Of each sample, 2 µL were injected into the analytical column (2.1 mm × 150 mm, 5 µm pore size, 200 Å HILICON iHILIC®-Fusion(P)), guarded by a pre-column (2.1 mm × 20 mm, 200 Å HILICON iHILIC®-Fusion(P) Guard Kit) operating at 35° C. […]

[9] = NRH levels in liver, kidney and muscle after oral gavage; type: in vivo; settings: mice, oral gavage 250 mg/kg, 2 hours
Experimental: (§4) 8 week-old C57BI/6NTac mice were orally gavaged with either saline (as vehicle), and NRH (250 mg/kg). After 2 hours, liver, skeletal muscle and kidney NRH levels were evaluated. All results are expressed as mean +/-SEM of n=4 mice per group, as areas under the signal by LC-MS analysis, corrected by total protein amount of tissue.
as §1

[10] = test system: Salmonella enterica serovar Typhimurium; assay: Anti-bacterial response of monocyte-derived macrophages against Salmonella (CFU counts); type: cell-based; settings: 0.01 mM for 42 h prior to infection, MOI 10, 1 h; gentamicin 2 h
Experimental: (§5) Monocyte-derived macrophages were treated with 0.01 mM NRH for 42 h prior to infection with Salmonella enterica serovar Typhimurium for 1 h using a multiplicity of infection of 10. Following infection, macrophages were treated with gentamicin for 2 h before cell lysis. Values show absolute colony forming unit (CFU) counts with each dot representing one donor and each line representing paired samples. Graphs show pooled data of 2 independent experiments with 2-3 donors/experiment.
as §5, with “donors/experiment. (FIG. 5).” for “donors/experiment.”

[11] = NRH levels in lung after oral gavage; type: in vivo; settings: mice, oral gavage of stable isotope-labelled NRH 250 mg/kg, 2 hours
Experimental: as §4, with “and an stable isotope-labelled” for “and”, “hours,” for “hours, liver, skeletal muscle and kidney”, “levels in the lung” for “levels”, “+/-SE” for “+/-SEM”
as §3, with “source.” for “source. Of each sample, 2 µL were injected into the analytical column (2.1 mm × 150 mm, 5 µm pore size, 200 Å HILICON iHILIC®-Fusion(P)), guarded by a pre-column (2.1 mm × 20 mm, 200 Å HILICON iHILIC®-Fusion(P) Guard Kit) operating at 35° C.”
8 week-old C57BI/6NTac mice were orally gavaged with either saline (as vehicle), and an stable isotope-labelled NRH (250 mg/kg). After 2 hours, NRH levels in the lung were evaluated. All results are expressed as mean +/-SE of n=4 mice per group, as areas under the signal by LC-MS analysis, corrected by total protein amount of tissue (FIG. 4).

[12] = test system: Mouse bone marrow derived macrophages; assay: Intracellular NAD+ in cultured bone marrow derived macrophages; type: cell-based; settings: 1 or 2 hours
Experimental: Mouse bone marrow derived macrophages were treated with dihydronicotinamide riboside (NRH) at the concentrations indicated, using PBS as control. […] Control group. Mouse bone marrow derived macrophages were treated with dihydronicotinamide riboside (NRH) at the concentrations indicated, using PBS as control.

[13] = test system: RAW 264.7 macrophages; assay: Intracellular NAD+ in cultured RAW 264.7 macrophages; type: cell-based; settings: 1 hour
Experimental: RAW 264.7 macrophages were treated with dihydronicotinamide riboside (NRH) at the concentrations indicated. […] Control (0 mM) group. RAW 264.7 macrophages were treated with dihydronicotinamide riboside (NRH) at the concentrations indicated.

SMILES: NC(=O)c1ccc[n+]([C@@H]2O[C@H](CO)[C@@H](O)[C@H]2O)c1 [NR, 1-b-D-ribofuranosyl-3-pyridinecarboxamide salt, reference compound]
- levels of spiked compound in plasma [1]: decayed
- NAD+ levels in kidney [2]: increased
- NAD+ levels in liver [2]: increased
- NAD+ levels in muscle [2]: increased
- NAM levels in circulation ([3]; IP 500 mg/kg): highly increased
- degradation to NAM in FBS supplemented media [4]: occurs
- circulating NAM relative to that after NRH treatment ([5]; C57BL/6NTac, mouse, in vivo, po, 1 h): ~ 4 fold
- circulating NAM ([5]; mouse, in vivo, po): large increases

SMILES: NC(=O)C1=CN([C@@H]2O[C@H](CO)[C@@H](O)[C@H]2O)C=CC1 [NRH, dihydronicotinamide riboside]
- levels of spiked compound in plasma [1]: remained stable
- NR production on incubation in isolated plasma ([1]; isolated plasma): did not lead to NR production
- intracellular NAD+ levels [6]: increases NAD+
- stability in water [7]: stability
- effect on hepatic NAD+ levels [8]: more potent effect on hepatic NAD+ levels than NR
- NAD+ levels in kidney [2]: increased
- NAD+ levels in liver [2]: increased
- NAD+ levels in muscle [2]: increased
- NR in circulation ([3]; after IP treatment, compared with NR injection): much higher levels than those detected after NR injection itself
- NRH in kidney [9]: found intact, in high levels
- NRH in liver [9]: found intact, in high levels
- NRH in muscle [9]: found intact, in high levels
- degradation to NAM in FBS supplemented media [4]: did not degrade to NAM
- NRH in plasma ([5]; mice, 1 h after oral administration): detectable
- NRH concentration in plasma ([5]; mice, after oral gavage): 11.16 ± 1.74 µM
- anti-bacterial macrophage response against salmonella [10]: able to augment anti-bacterial macrophage response
- NRH in lung [11]: efficient biodistribution in the lung
- intracellular NAD+ levels [12]: increases NAD+
- intracellular NAD+ levels [13]: increases NAD+
